Data on 13 molecules can be found in US9586951B2 (FUJIFILM Corporation, priority 2013, dated 2017).

Molecules are shown by their SMILES. Some results are limits rather than exact numbers.

T1 sequence (Q13315 whole entry): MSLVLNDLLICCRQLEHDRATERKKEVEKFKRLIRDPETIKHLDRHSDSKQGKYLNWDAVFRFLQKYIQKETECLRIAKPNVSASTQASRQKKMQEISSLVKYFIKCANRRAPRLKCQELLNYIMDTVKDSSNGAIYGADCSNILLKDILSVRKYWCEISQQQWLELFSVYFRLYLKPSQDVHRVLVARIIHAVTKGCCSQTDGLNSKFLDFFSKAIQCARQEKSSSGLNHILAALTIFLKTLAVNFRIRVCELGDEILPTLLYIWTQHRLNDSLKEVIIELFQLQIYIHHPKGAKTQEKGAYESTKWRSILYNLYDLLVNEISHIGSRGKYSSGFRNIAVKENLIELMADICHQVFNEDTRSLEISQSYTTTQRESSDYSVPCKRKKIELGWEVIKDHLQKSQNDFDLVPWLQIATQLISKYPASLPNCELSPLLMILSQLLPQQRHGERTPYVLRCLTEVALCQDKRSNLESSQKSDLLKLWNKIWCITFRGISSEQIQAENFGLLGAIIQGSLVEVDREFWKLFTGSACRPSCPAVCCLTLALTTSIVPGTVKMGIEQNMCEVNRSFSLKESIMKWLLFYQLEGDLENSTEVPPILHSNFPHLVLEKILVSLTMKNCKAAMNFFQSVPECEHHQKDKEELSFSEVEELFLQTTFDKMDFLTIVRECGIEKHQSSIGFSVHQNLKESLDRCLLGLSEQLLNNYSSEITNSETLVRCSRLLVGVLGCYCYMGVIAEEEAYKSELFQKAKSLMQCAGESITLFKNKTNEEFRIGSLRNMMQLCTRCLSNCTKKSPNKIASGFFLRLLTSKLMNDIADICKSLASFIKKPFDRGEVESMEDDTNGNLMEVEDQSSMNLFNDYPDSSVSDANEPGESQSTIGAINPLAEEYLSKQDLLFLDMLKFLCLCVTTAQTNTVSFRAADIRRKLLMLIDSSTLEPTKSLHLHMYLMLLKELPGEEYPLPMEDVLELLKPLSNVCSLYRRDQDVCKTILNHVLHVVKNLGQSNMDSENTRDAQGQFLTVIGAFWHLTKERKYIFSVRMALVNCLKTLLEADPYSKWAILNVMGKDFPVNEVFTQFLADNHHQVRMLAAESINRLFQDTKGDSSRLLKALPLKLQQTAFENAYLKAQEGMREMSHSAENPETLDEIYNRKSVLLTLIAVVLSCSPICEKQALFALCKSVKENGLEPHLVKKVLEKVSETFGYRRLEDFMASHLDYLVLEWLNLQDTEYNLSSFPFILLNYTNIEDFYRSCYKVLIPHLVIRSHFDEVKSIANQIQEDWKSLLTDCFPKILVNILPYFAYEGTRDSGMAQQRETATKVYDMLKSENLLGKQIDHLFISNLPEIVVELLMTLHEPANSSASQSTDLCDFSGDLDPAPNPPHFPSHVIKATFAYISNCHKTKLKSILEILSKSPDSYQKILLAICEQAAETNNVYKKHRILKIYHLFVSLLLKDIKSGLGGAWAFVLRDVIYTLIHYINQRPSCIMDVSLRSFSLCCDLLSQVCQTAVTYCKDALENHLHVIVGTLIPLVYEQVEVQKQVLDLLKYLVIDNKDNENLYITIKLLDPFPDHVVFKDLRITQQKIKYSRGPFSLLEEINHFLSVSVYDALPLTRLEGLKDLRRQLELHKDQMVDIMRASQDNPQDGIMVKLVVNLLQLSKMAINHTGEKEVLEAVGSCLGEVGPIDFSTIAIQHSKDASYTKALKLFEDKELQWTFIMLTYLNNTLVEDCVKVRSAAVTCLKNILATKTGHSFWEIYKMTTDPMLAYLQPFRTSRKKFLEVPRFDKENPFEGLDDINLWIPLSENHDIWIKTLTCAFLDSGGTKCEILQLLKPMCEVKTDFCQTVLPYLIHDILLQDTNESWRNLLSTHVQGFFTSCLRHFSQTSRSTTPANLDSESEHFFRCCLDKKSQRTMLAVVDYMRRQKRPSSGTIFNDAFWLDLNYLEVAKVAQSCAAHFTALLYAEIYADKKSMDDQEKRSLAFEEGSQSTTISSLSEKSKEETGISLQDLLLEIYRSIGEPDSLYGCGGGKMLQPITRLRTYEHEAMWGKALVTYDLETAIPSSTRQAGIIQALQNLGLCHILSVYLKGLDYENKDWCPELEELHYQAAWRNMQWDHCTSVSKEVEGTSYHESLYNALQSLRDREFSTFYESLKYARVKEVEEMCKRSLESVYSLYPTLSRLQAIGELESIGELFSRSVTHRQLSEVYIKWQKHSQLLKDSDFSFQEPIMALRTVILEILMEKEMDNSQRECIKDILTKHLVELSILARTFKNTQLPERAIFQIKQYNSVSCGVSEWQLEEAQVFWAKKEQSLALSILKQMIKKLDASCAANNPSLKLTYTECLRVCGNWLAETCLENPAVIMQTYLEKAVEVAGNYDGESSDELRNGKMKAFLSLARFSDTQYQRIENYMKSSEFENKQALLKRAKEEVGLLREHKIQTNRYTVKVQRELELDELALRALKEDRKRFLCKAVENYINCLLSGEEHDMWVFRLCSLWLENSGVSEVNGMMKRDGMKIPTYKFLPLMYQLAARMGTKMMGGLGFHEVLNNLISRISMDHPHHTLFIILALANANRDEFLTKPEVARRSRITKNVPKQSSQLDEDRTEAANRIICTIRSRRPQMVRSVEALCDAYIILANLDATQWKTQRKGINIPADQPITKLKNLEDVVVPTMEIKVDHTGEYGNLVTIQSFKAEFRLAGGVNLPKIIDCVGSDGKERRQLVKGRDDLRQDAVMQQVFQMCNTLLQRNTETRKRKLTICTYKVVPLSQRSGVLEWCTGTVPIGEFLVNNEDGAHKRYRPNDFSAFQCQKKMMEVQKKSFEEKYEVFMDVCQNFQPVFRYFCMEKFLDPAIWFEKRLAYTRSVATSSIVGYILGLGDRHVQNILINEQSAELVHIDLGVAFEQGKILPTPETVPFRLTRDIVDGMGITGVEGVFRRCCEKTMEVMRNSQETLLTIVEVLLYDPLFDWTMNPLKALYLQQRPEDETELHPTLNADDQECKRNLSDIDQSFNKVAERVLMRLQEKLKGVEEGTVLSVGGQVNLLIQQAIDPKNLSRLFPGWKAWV

This assay has as its target T1, ATM (Homo sapiens, UniProt Q13315).
T1 construct: detecting phosphorylation of Chk2 in a human non-small cell lung cancer cell line NCI-H460 (ATCC company); host or cells: NCI-H460 human non-small cell lung cancer cells
Put plainly: ATM inhibition test (phosphorylation of Chk2 generated by ionizing radiation, AlphaScreen SureFire). It counts as cell-based. The settings on record: phosphorylated Chk2 in NCI-H460 cells, ionizing radiation 8Gy, 1 hour after test compound treatment; read-out: ATM inhibitory activity. An outline of the steps: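 Human NCI-H460 lung cancer cells were treated with compound for 1 h, then irradiated at 8Gy and incubated 1 h at 37° C. Phospho-Chk2 was quantified by AlphaScreen SureFire; inhibition % was normalised between irradiated untreated and non-irradiated untreated wells.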
For orientation: Alpha assays give light when donor and acceptor beads are brought close together.
Regarding `O=c1cc(N2CCOCC2)cc(-c2cccc3c2Oc2ccc(NC4CCCNC4)cc2S3)[nH]1` (stereo not shown) [Example 4-5, 4-morpholino-6-(8-(piperidin-3-ylamino)phenoxathiin-4-yl)pyridin-2(1H)-one], the IC50 fell in the range of 500 to 2000 nM. Regarding `CC(C)(C)NCCNc1ccc2c(c1)Sc1cccc(-c3cc(N4CCOCC4)cc(=O)[nH]3)c1S2` [Example 1-10-13, 6-(7-((2-(tert-Butylamino)ethyl)amino)thianthren-1-yl)-4-morpholino pyridin-2 (1H)-one], the IC50 lay in the range of 500 to 2000 nM. Regarding `O=c1cc(N2CCOCC2)cc(-c2cccc3c2Cc2ccc(NCc4ccc(Cl)nc4)cc2O3)[nH]1` [Example 6, 6-(6-(((6-chloropyridin-3-yl)methyl)amino)-9H-xanthen-1-yl)-4-morpholinopyridin-2(1H)-one], the IC50 lay in the range of 500 to 2000 nM. As for `O=c1cc(N2CCOCC2)cc(-c2cccc3c2Oc2ccc(NC4CCN(CCc5ccccc5)C4)cc2C3)[nH]1` (stereo not shown) [Example 2-19-7, 4-Morpholino-6-(7-((1-phenethylpyrrolidin-3-yl)amino)-9H-xanthen-4-yl)pyridin-2(1H)-one], the figure is 100 to 500 nM. Regarding `Cc1cncc(CNc2ccc3c(c2)Cc2cccc(-c4cc(N5CCOCC5)cc(=O)[nH]4)c2O3)c1` [Example 2-2-9, 6-(7-(((5-Methylpyridin-3-yl)methyl)amino)-9H-xanthen-4-yl)-4-morpholino pyridin-2(1H)-one], the IC50 fell in the range of 100 to 500 nM. The same measure for `CNCc1ccnc(C(C)Nc2ccc3c(c2)Sc2cccc(-c4cc(N5CCOCC5)cc(=O)[nH]4)c2S3)n1` (stereo not shown) [Example 1-20-1, 6-(7-((1-(4-((methylamino)methyl)pyrimidin-2-yl)ethyl)amino)thianthren-1-yl)-4-morpholinopyridin-2(1H)-one]: 100 to 500 nM. The same measure for `O=c1cc(N2CCOCC2)cc(-c2cccc3c2Oc2ccc(NCc4cnc5ccccc5c4)cc2C3)[nH]1` [Example 2-2-46, 4-Morpholino-6-(7-((quinolin-3-ylmethyl)amino)-9H-xanthen-4-yl) pyridin-2(1H)-one]: under 100 nM.

Regarding `Cc1ccsc1CNc1ccc2c(c1)Sc1cccc(-c3cc(N4CCOCC4)cc(=O)[nH]3)c1S2` [Example 1-12-59, 6-(7-(((3-Methylthiophen-2-yl)methyl)amino)thianthren-1-yl)-4-morpholino pyridin-2 (1H)-one], the IC50 lay in the range of 500 to 2000 nM.

With `O=c1cc(N2CCOCC2)cc(-c2cccc3c2Oc2ccc(NCc4ccco4)cc2C3)[nH]1` [Example 2-14-33, 6-(7-((Furan-2-ylmethyl)amino)-9H-xanthen-4-yl)-4-morpholino pyridin-2(1H)-one], the IC50 fell in the range of 100 to 500 nM. Regarding `COCC[C@H](CN1CCOCC1)Nc1ccc2c(c1)Sc1cccc(-c3cc(N4CCOCC4)cc(=O)[nH]3)c1S2` [Example 1-59-1, (R)-6-(7-((4-methoxy-1-morpholinobutan-2-yl)amino)thianthren-1-yl)-4-morpholinopyridin-2(1H)-one], the IC50 is under 100 nM. The same measure for `O=c1cc(N2CCOCC2)cc(-c2cccc3c2Sc2ccc(NC4CCCCC4Cl)cc2S3)[nH]1` (stereo not shown) [Example 1-12-72, 6-(7-((2-Chlorocyclohexyl)amino)thianthren-1-yl)-4-morpholino pyridin-2(1H)-one]: 500 to 2000 nM; for `Nc1cccc2c1Sc1cccc(-c3cc(N4CCOCC4)cc(=O)[nH]3)c1O2` [Example 4-3, 6-(9-Aminophenoxathiin-4-yl)-4-morpholinopyridin-2(1H)-one]: 100 to 500 nM. As for `O=c1cc(N2CCOCC2)cc(-c2cccc3c2Sc2ccc(N[C@@H]4COC[C@@H]4N4CCOCC4)cc2S3)[nH]1` (relative stereo) [Example 1-61, cis-4-morpholino-6-(7-((4-morpholinotetrahydrofuran-3-yl)amino)thianthren-1-yl)pyridin-2(1 H)-one], the figure is under 100 nM.
